Experimental data taken from ChEMBL document CHEMBL4651402, “Screening of ~5500 FDA-approved drugs and clinical candidates for anti-SARS-CoV-2 activity” (2021).
pIC50: −log10 of the molar value.

Test system: SARS-CoV-2
Experiment: microbe, parasite or virus in culture
Settings: Severe acute respiratory syndrome coronavirus 2, Vero C1008, 48 h; for IC50: read-out: pIC50 (converted)

COc1cc(NCc2ccc3nc(N)nc(N)c3c2C)cc(OC)c1OC [TRIMETREXATE]
pIC50: < 4.70
IC50: > 20 µM

CC(CN(C)C)CN1c2ccccc2CCc2ccccc21 (centres undefined) [TRIMIPRAMINE]
pIC50: < 4.70
IC50: > 20 µM

Cc1cc2cc3c(C)cc(=O)oc3c(C)c2o1 [TRIOXSALEN]
pIC50: < 4.70
IC50: > 20 µM

CN(C)CCN(Cc1ccccc1)c1ccccn1 [TRIPELENNAMINE]
pIC50: < 4.70
IC50: > 20 µM

Cc1ccc(/C(=C\CN2CCCC2)c2ccccn2)cc1 [TRIPROLIDINE]
pIC50: < 4.70
IC50: > 20 µM

COc1cc(C(=S)N2CCOCC2)cc(OC)c1OC [TRITIOZINE]
pIC50: < 4.70
IC50: > 20 µM

O=c1[nH]c(=O)n(Cl)c(=O)n1Cl [TROCLOSENE]
pIC50: < 4.70
IC50: > 20 µM

Cc1c(C)c2c(c(C)c1O)CCC(C)(COc1ccc(CC3SC(=O)NC3=O)cc1)O2 (centres undefined) [TROGLITAZONE]
pIC50: < 4.70
IC50: > 20 µM

Cc1c(C)c2c(c(C)c1O)CCC(C)(C(=O)O)O2 (centres undefined) [TROLOX]
pIC50: < 4.70
IC50: > 20 µM

NC(CO)(CO)CO [TROMETHAMINE]
pIC50: < 4.70
IC50: > 20 µM

CCN(Cc1ccncc1)C(=O)C(CO)c1ccccc1 (centres undefined) [TROPICAMIDE]
pIC50: < 4.70
IC50: > 20 µM

CN1[C@@H]2CC[C@H]1C[C@@H](OC(=O)c1c[nH]c3ccccc13)C2 [TROPISETRON]
pIC50: < 4.70
IC50: > 20 µM

N[C@@H]1[C@H]2CN(c3nc4c(cc3F)c(=O)c(C(=O)O)cn4-c3ccc(F)cc3F)C[C@@H]12 [TROVAFLOXACIN]
pIC50: < 4.70
IC50: > 20 µM

COc1cc(C(=O)NC2CCCNC2)cc(OC)c1OC (centres undefined) [TROXIPIDE]
pIC50: < 4.70
IC50: > 20 µM

NCCc1c[nH]c2ccccc12 [TRYPTAMINE]
pIC50: < 4.70
IC50: > 20 µM

N[C@@H](Cc1c[nH]c2ccccc12)C(=O)O [TRYPTOPHAN]
pIC50: < 4.70
IC50: > 20 µM

Nc1ncnc2c1ccn2[C@@H]1O[C@H](CO)[C@@H](O)[C@H]1O [TUBERCIDIN]
pIC50: < 4.70
IC50: > 20 µM

CC(C)(C)NCC(O)c1ccccc1Cl (centres undefined) [TULOBUTEROL]
pIC50: < 4.70
IC50: > 20 µM

CCCCNC(=O)OCC(C)(CCC)COC(N)=O (centres undefined) [TYBAMATE]
pIC50: < 4.70
IC50: > 20 µM

NCCc1ccc(O)cc1 [TYRAMINE]
pIC50: < 4.70
IC50: > 20 µM

CC(C)C[C@H](NC(=O)[C@@H](O)[C@H](N)Cc1ccccc1)C(=O)O [UBENIMEX]
pIC50: < 4.70
IC50: > 20 µM

COC1=C(OC)C(=O)C(C/C=C(\C)CC/C=C(\C)CC/C=C(\C)CC/C=C(\C)CC/C=C(\C)CC/C=C(\C)CC/C=C(\C)CC/C=C(\C)CC/C=C(\C)CCC=C(C)C)=C(C)C1=O [UBIDECARENONE]
pIC50: < 4.70
IC50: > 20 µM

CC(C)=CCOc1cc(NC(=S)c2ccoc2C)ccc1Cl [UC 781]
pIC50: < 4.70
IC50: > 20 µM

CC[C@@H]1CN(C(=O)NCC(F)(F)F)C[C@@H]1c1cnc2cnc3[nH]ccc3n12 [UPADACITINIB]
pIC50: < 4.70
IC50: > 20 µM

O=c1cc[nH]c(=O)[nH]1 [URACIL]
pIC50: < 4.70
IC50: > 20 µM

NC(N)=O [UREA]
pIC50: < 4.70
IC50: > 20 µM

COc1ccc(C(=O)CC(=O)O)c2c1C=CC(C)(C)O2 [URSINOIC ACID]
pIC50: < 4.70
IC50: > 20 µM

C[C@H](CCC(=O)O)[C@H]1CC[C@H]2[C@@H]3[C@@H](O)C[C@@H]4C[C@H](O)CC[C@]4(C)[C@H]3CC[C@]12C [URSODIOL]
pIC50: < 4.70
IC50: > 20 µM

COC(=O)[C@H](c1ccccc1)N1CCC(c2ccc(NC(=O)c3ccccc3-c3ccc(C(F)(F)F)cc3)cc2)CC1 [USISTAPIDE]
pIC50: < 4.70
IC50: > 20 µM

Cc1cccc(-c2[nH]c(CNc3ccccc3F)nc2-c2ccc3ncnn3c2)n1 [VACTOSERTIB]
pIC50: < 4.70
IC50: > 20 µM

Cc1ccc2c(=O)c3cccc(CC(=O)O)c3oc2c1C [VADIMEZAN]
pIC50: < 4.70
IC50: > 20 µM

CC(C)[C@H](N)C(=O)OCCOCn1cnc2c(=O)nc(N)[nH]c21 [VALACYCLOVIR]
pIC50: < 4.70
IC50: > 20 µM

Cc1onc(-c2ccccc2)c1-c1ccc(S(N)(=O)=O)cc1 [VALDECOXIB]
pIC50: < 4.70
IC50: > 20 µM

CC(C)[C@H](N)C(=O)OCC(CO)OCn1cnc2c(=O)[nH]c(N)nc21 (some centres undefined) [VALGANCICLOVIR]
pIC50: < 4.70
IC50: > 20 µM

CCC(C)C(CC)C(N)=O (centres undefined) [VALNOCTAMIDE]
pIC50: < 4.70
IC50: > 20 µM

CC(C)[C@H](N)C(=O)O[C@@H]1[C@@H](CO)O[C@@H](n2ccc(N)nc2=O)[C@]1(C)O [VALOPICITABINE]
pIC50: < 4.70
IC50: > 20 µM

CCCC(CCC)C(=O)O [VALPROIC ACID]
pIC50: < 4.70
IC50: > 20 µM

CCCC(CCC)C(N)=O [VALPROMIDE]
pIC50: < 4.70
IC50: > 20 µM

C/C=C/C[C@@H](C)C(=O)[C@H]1C(=O)N[C@@H](C(C)C)C(=O)N(C)CC(=O)N(C)[C@@H](CC(C)C)C(=O)N[C@@H](C(C)C)C(=O)N(C)[C@@H](CC(C)C)C(=O)N[C@@H](C)C(=O)N[C@H](C)C(=O)N(C)[C@@H](CC(C)C)C(=O)N(C)[C@@H](CC(C)C)C(=O)N(C)[C@@H](C(C)C)C(=O)N1C [VALSPODAR]
pIC50: < 4.70
IC50: > 20 µM

CC(C)[C@H](N)C(=O)O[C@@H]1C[C@@H](n2ccc(N)nc2=O)O[C@H]1CO [VALTORCITABINE]
pIC50: < 4.70
IC50: > 20 µM

CN[C@H](CC(C)C)C(=O)N[C@H]1C(=O)N[C@@H](CC(N)=O)C(=O)N[C@H]2C(=O)N[C@H]3C(=O)N[C@H](C(=O)N[C@H](C(=O)O)c4cc(O)cc(O)c4-c4cc3ccc4O)[C@H](O)c3ccc(c(Cl)c3)Oc3cc2cc(c3O[C@@H]2O[C@H](CO)[C@@H](O)[C@H](O)[C@H]2O[C@H]2C[C@](C)(N)[C@H](O)[C@H](C)O2)Oc2ccc(cc2Cl)[C@H]1O [VANCOMYCIN]
pIC50: < 4.70
IC50: > 20 µM

COc1cc2/c(=N/c3ccc(Br)cc3F)nc[nH]c2cc1OCC1CCN(C)CC1 [VANDETANIB]
pIC50: < 4.70
IC50: > 20 µM

Fc1ccc(C(OCCN2CCN(CCCc3ccccc3)CC2)c2ccc(F)cc2)cc1 [VANOXERINE]
pIC50: < 4.70
IC50: > 20 µM

NC(=O)c1cnc2n1CCc1ccccc1C21CCNCC1 [VAPITADINE]
pIC50: < 4.70
IC50: > 20 µM

c1cnc2cc3c(cc2n1)[C@@H]1CNC[C@H]3C1 [VARENICLINE]
pIC50: < 4.70
IC50: > 20 µM

C[C@@H]1COC(Nc2ccc3ncnc(Nc4ccc(OCc5nccs5)c(Cl)c4)c3c2)=N1 [VARLITINIB]
pIC50: < 4.70
IC50: > 20 µM

Clc1ccc(Nc2nnc(Cc3ccncc3)c3ccccc23)cc1 [VATALANIB]
pIC50: < 4.70
IC50: > 20 µM

CC(=O)O[C@H]1C[C@@H]2CC[C@@H]3[C@H](CC[C@@]4(C)[C@H]3C[C@H]([N+]3(C)CCCCC3)[C@@H]4OC(C)=O)[C@@]2(C)C[C@@H]1N1CCCCC1 [VECURONIUM]
pIC50: < 4.70
IC50: > 20 µM

C[C@]1(c2nc3c(C(N)=O)cccc3[nH]2)CCCN1 [VELIPARIB]
pIC50: < 4.70
IC50: > 20 µM

Nc1c2c(nc3ccccc13)CCCC2O (centres undefined) [VELNACRINE]
pIC50: < 4.70
IC50: > 20 µM

CCCS(=O)(=O)Nc1ccc(F)c(C(=O)c2c[nH]c3ncc(-c4ccc(Cl)cc4)cc23)c1F [VEMURAFENIB]
pIC50: < 4.70
IC50: > 20 µM

COc1ccc(C(CN(C)C)C2(O)CCCCC2)cc1 (centres undefined) [VENLAFAXINE]
pIC50: < 4.70
IC50: > 20 µM

COc1cc2c(cc1OC)C(C)N(CCc1ccc(N)cc1)CC2 (centres undefined) [VERADOLINE]
pIC50: < 4.70
IC50: > 20 µM

CC(C)(C)c1ccc(S(=O)(=O)Nc2ccc(Cl)cc2C(=O)c2cc[n+]([O-])cc2)cc1 [VERCIRNON]
pIC50: < 4.70
IC50: > 20 µM

COc1ccc(N(C)c2nc(C)nc3ccccc23)cc1 [VERUBULIN]
pIC50: < 4.70
IC50: > 20 µM

CCCCOc1nc(N)c2c(n1)N(Cc1cccc(CN3CCCC3)c1)CC(=O)N2 [VESATOLIMOD]
pIC50: < 4.70
IC50: > 20 µM

COC[C@@H](c1ccc(C(F)(F)F)cc1)N1CCN(C2(C)CCN(C(=O)c3c(C)ncnc3C)CC2)C[C@@H]1C [VICRIVIROC]
pIC50: < 4.70
IC50: > 20 µM

COc1cccc(-c2ccc(NC(=O)C3=C(C(=O)O)CCC3)c(F)c2)c1 [VIDOFLUDIMUS]
pIC50: < 4.70
IC50: > 20 µM

CC(C)(C)NC(=O)c1ccc(Oc2cc(F)c(CC(=O)O)cc2Cl)c(NS(=O)(=O)c2ccc(C3CC3)cc2Cl)c1 [VIDUPIPRANT]
pIC50: < 4.70
IC50: > 20 µM

C=CC(N)CCC(=O)O (centres undefined) [VIGABATRIN]
pIC50: < 4.70
IC50: > 20 µM

N#C[C@@H]1CCCN1C(=O)CNC12CC3CC(CC(O)(C3)C1)C2 [VILDAGLIPTIN]
pIC50: < 4.70
IC50: > 20 µM

CCOc1ccccc1OCC1CNCCO1 (centres undefined) [VILOXAZINE]
pIC50: < 4.70
IC50: > 20 µM

CC[C@]12CCCN3CCc4c(n(c5ccccc45)C(=O)C1)[C@@H]32 [VINBURNINE]
pIC50: < 4.70
IC50: > 20 µM

CC[C@]12CCCN3CCc4c(n(c5ccccc45)[C@@](O)(C(=O)OC)C1)[C@@H]32 [VINCAMINE]
pIC50: < 4.70
IC50: > 20 µM

CC[C@]1(O)C[C@H]2CN(CCc3c([nH]c4ccccc34)[C@@](C(=O)OC)(c3cc4c(cc3OC)N(C=O)[C@H]3[C@@](O)(C(=O)OC)[C@H](OC(C)=O)[C@]5(CC)C=CCN6CC[C@]43[C@@H]65)C2)C1 [VINCRISTINE]
pIC50: < 4.70
IC50: > 20 µM

CC[C@]1(O)C[C@@H]2CN(CCc3c([nH]c4ccccc34)[C@@](C(=O)OC)(c3cc4c(cc3OC)N(C)[C@H]3[C@@](O)(C(N)=O)[C@H](O)[C@]5(CC)C=CCN6CC[C@]43[C@@H]65)C2)C1 [VINDESINE]
pIC50: < 4.70
IC50: > 20 µM

CCOC(=O)C1=C[C@]2(CC)CCCN3CCc4c(n1c1ccccc41)[C@@H]32 [VINPOCETINE]
pIC50: < 4.70
IC50: > 20 µM
